According to US12421210B2, “Fused bicyclic heterocycles as therapeutic agents” (NEW YORK UNIVERSITY, priority 2018, dated 2025):
Where two headings read alike, the source gives them in different places.

Biological target: human NAMPT enzyme (His-hNAMPT) (Homo sapiens (Human), UniProt P43490)
Assay: NAMPT enzymatic inhibition assay (fluorescence, NADH product)
Assay type: biochemical
[1] = [HDB], read-out: NAMPT IC50 (μM) [HDB]
[2] = [BPS], read-out: NAMPT IC50 (μM) [BPS]

Sequence of human NAMPT enzyme (His-hNAMPT) (P43490 whole entry): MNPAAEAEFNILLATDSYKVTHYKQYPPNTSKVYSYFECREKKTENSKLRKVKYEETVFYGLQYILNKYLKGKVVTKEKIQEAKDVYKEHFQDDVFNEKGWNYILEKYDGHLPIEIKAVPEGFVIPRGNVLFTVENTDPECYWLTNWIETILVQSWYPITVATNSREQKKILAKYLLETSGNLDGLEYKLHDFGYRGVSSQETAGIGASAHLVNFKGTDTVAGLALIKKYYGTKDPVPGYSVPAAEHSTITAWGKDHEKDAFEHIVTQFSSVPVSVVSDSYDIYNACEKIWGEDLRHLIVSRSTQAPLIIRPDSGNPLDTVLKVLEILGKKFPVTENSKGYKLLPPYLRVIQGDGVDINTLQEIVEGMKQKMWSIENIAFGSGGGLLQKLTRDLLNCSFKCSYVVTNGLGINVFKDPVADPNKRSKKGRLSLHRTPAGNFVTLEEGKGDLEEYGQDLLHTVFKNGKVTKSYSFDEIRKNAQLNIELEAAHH

Row | IC50 [1] | IC50 [2] | Structure (SMILES)
1 | 0.01 to 0.49 µM | – | O=C(/C=C/c1cccnc1)NCC[C@@H]1[C@H]2CN(c3ccncc3)C[C@@H]12 [Example 154, (E)-3-(pyridin-3-yl)-N-(2-((1R,5S,6s)-3-(pyridin-4-yl)-3-azabicyclo[3.1.0]hexan-6-yl)ethyl)acrylamide]
2 | 0.01 to 0.49 µM | – | O=C(/C=C/c1cccnc1)NCC[C@@H]1[C@H]2CN(c3ccc(Cl)cc3)C[C@@H]12 [Example 146, (E)-N-(2-((1R,5S,6s)-3-(4-chlorophenyl)-3-azabicyclo[3.1.0]hexan-6-yl)ethyl)-3-(pyridin-3-yl)acrylamide]
3 | 0.01 to 0.49 µM | – | NC(=O)c1cccc(C(=O)N2C[C@@H]3[C@@H](CCNC(=O)c4cc5cnccc5[nH]4)[C@@H]3C2)c1 [Example 116, N-(2-((1R,5S,6s)-3-(3-carbamoylbenzoyl)-3-azabicyclo[3.1.0]hexan-6-yl)ethyl)-1H-pyrrolo[3,2-c]pyridine-2-carboxamide]
4 | – | 1 to 29 µM | CC1(OC(=O)N2C[C@@H]3[C@@H](CNC(=O)/C=C/c4ccc(N)nc4)[C@@H]3C2)COC1 [Example 239, (1R,5S,6s)-3-methyloxetan-3-yl 6-(((E)-3-(6-aminopyridin-3-yl)acrylamido)methyl)-3-azabicyclo[3.1.0]hexane-3-carboxylate]
5 | 0.01 to 0.49 µM | – | COc1nc(N2C[C@@H]3[C@@H](CCNC(=O)/C=C/c4cccnc4)[C@@H]3C2)ncc1F [Example 173, (E)-N-(2-((1R,5S,6s)-3-(5-fluoro-4-methoxypyrimidin-2-yl)-3-azabicyclo[3.1.0]hexan-6-yl)ethyl)-3-(pyridin-3-yl)acrylamide]
6 | 0.01 to 0.49 µM | – | O=C(O)c1cccc(C(=O)N2C[C@@H]3[C@@H](CCNC(=O)c4cnc5nccn5c4)[C@@H]3C2)c1 [Example 182, 3-((1R,5S,6s)-6-(2-(imidazo[1,2-a]pyrimidine-6-carboxamido)ethyl)-3-azabicyclo[3.1.0]hexane-3-carbonyl)benzoic acid]
7 | – | 1 to 29 µM | O=C(NCC[C@@H]1[C@H]2CN(S(=O)(=O)C3CCOCC3)C[C@@H]12)c1cc2ccncc2o1 [Example 73, N-(2-((1R,5S,6s)-3-((tetrahydro-2H-pyran-4-yl)sulfonyl)-3-azabicyclo[3.1.0]hexan-6-yl)ethyl)furo[2,3-c]pyridine-2-carboxamide]
8 | – | > 30 µM | CC(C)(C)OC(=O)N1C[C@@H]2[C@H](C1)[C@H]2CC1(NC(=O)/C=C/c2cccnc2)CC1 [Example 242, (1R,5S,6s)-tert-butyl 6-((1-((E)-3-(pyridin-3-yl)acrylamido)cyclopropyl)methyl)-3-azabicyclo[3.1.0]hexane-3-carboxylate]
9 | 0.01 to 0.49 µM | – | O=C(/C=C/c1cccnc1)NCC[C@@H]1[C@H]2CN(c3nc(N4CCNCC4)ncc3F)C[C@@H]12 [Example 324, (E)-N-(2-((1R,5S,6s)-3-(5-fluoro-2-(piperazin-1-yl)pyrimidin-4-yl)-3-azabicyclo[3.1.0]hexan-6-yl)ethyl)-3-(pyridin-3-yl)acrylamide]
10 | < 0.01 µM | – | CN1CCN(c2ncc(F)c(N3C[C@@H]4[C@@H](CCNC(=O)/C=C/c5cccnc5)[C@@H]4C3)n2)CC1 [Example 325, (E)-N-(2-((1R,5S,6s)-3-(5-fluoro-2-(4-methylpiperazin-1-yl)pyrimidin-4-yl)-3-azabicyclo[3.1.0]hexan-6-yl)ethyl)-3-(pyridin-3-yl)acrylamide]
11 | 0.01 to 0.49 µM | – | O=C(/C=C/c1cccnc1)NCC[C@@H]1[C@H]2CN(C(c3ccccc3)C3CCOCC3)C[C@@H]12 (stereo partly drawn) [Example 335, (E)-N-(2-((1R,5S,6s)-3-(phenyl(tetrahydro-2H-pyran-4-yl)methyl)-3-azabicyclo[3.1.0]hexan-6-yl)ethyl)-3-(pyridin-3-yl)acrylamide]
12 | 0.01 to 0.49 µM | – | O=C(/C=C/c1cccnc1)NCC[C@@H]1[C@H]2CN(c3nc(C(F)(F)F)cs3)C[C@@H]12 [Example 175, (E)-3-(pyridin-3-yl)-N-(2-((1R,5S,6s)-3-(4-(trifluoromethyl)thiazol-2-yl)-3-azabicyclo[3.1.0]hexan-6-yl)ethyl)acrylamide]
